Experimental data published in US20230034248A1, “PLANT STOMATA OPENING PROMOTING AGENT” (OAT Agrio Co., Ltd., priority 2019, published 2023).

System: tomato seedlings
Experiment: Abscisic acid-induced stomatal closure inhibitory activity, second evaluation (foliar spray, ratio of open stomata)
Format: in vivo, tomato (cultivar: Ponderosa)
Details: for ratio of open stomata as compared to without the addition (student's t-test) / ratio of open stomata as compared to without the addition: 30 μM abscisic acid
Description: (§1) On Jun. 31, 2018, a seedling pot (Bee pot Y-55, manufactured by CANELON C.E) was filled with the culture soil, Kumiai Gardening Seedling Culture Soil AISAI No. 1 (manufactured by Katakura & Co-op Agri Corporation), to be level with the upper side of the pot. Two seeds of tomato (cultivar: Ponderosa) were planted in each pot, and the seedling pot was placed in a climate chamber (25° C., dark period/bright period: 11 h/13 h, bright period: 6:00 a.m. to 19:00 p.m.) at the Cultivation Research Center of OAT Agrio Co., Ltd. Water was supplied from the bottom of the pot, and plants were selected at the time of cotyledon development. At 8:30 a.m. on August 21, chemical solutions each prepared by dissolving 100 ppm of Tween (registered trademark) 80, 30 μM of abscisic acid, and 0 (Comparative Example 12), 100, 300, or 500 μM of steviol were sprayed evenly onto above-ground parts of crops grown to a plant age of about 4 in leaf number. At 11:30 a.m. and 16:00 p.m. on the same day, stomata on the underside of the top leaflet of the second leaf of crops were sampled on a cover glass with an instant adhesive (instant bond for general use AronAlpha (registered trademark) manufactured by TOAGOSEI CO., LTD.) thereon to prepare samples for stomatal observation. These samples were observed under a microscope (magnification 1,000×) to count the number of open or closed stomata in 100 or more stomata, and the ratio of open stomata was calculated according to the following equation:
ratio (%) of open stomata=100×(number of open stomata)/(total number of investigated stomata) (Equation)
(§2) The investigations were made in quadruplicate for each treatment condition. A significance test was performed by student's t-test on the ratio of open stomata obtained from the investigation of each individual plant against the ratio of open stomata obtained for the plot without the addition of steviol (0 μm: Comparative Example 12).
as §1, with “Feb. 27,” for “Jun. 31,”, “March 15,” for “August 21,”, “13),” for “12), 100,”, “stevioside” for “steviol”, “3” for “4”, “equation: […]” for “equation:”
as §2, with “stevioside” for “steviol”, “13).” for “12).”
On Mar. […]

[1] = 100 μM with 30 μM abscisic acid, sprayed 8:30, Time (11:30)
[2] = 300 μM with 30 μM abscisic acid, sprayed 8:30, Time (11:30)
[3] = 500 μM with 30 μM abscisic acid, sprayed 8:30, Time (11:30)
[4] = every addition concentration (100, 300, 500 μM) and every investigation time
[5] = 300 μM with 30 μM abscisic acid, sprayed 8:30, Time (16:00)
[6] = 500 μM with 30 μM abscisic acid, sprayed 8:30, Time (16:00)

## C=C1C[C@@]23CC[C@H]4[C@@](C)(CCC[C@@]4(C)C(=O)O[C@@H]4O[C@H](CO)[C@@H](O)[C@H](O)[C@H]4O)[C@@H]2CC[C@]1(O[C@@H]1O[C@H](CO)[C@@H](O)[C@H](O[C@@H]2O[C@H](CO)[C@@H](O)[C@H](O)[C@H]2O)[C@H]1O[C@@H]1O[C@H](CO)[C@@H](O)[C@H](O)[C@H]1O)C3 [rebaudioside A]
[1]
  Ratio (%) of Open Stomata: 56.6 ± 5.8%
100 μM with 30 μM abscisic acid, sprayed 8:30, Time (16:30)
  Ratio (%) of Open Stomata: 50.0 ± 3.2%
[2]
  Ratio (%) of Open Stomata: 58.6 ± 4.6%
300 μM with 30 μM abscisic acid, sprayed 8:30, Time (16:30)
  Ratio (%) of Open Stomata: 51.2 ± 2.1%
[3]
  Ratio (%) of Open Stomata: 56.5 ± 3.8%
500 μM with 30 μM abscisic acid, sprayed 8:30, Time (16:30)
  Ratio (%) of Open Stomata: 54.0 ± 6.6%
300 and 500 μM
  ratio of open stomata as compared to without the addition (student's t-test): statistically significant improvement in the ratio of open stomata
[4]
  ratio of open stomata as compared to without the addition: an improvement in the ratio of open stomata

## C=C1C[C@@]23CC[C@H]4[C@@](C)(CCC[C@@]4(C)C(=O)O)[C@@H]2CC[C@]1(O)C3 [steviol]
[1]
  Ratio (%) of Open Stomata: 69.0 ± 5.5%
100 μM with 30 μM abscisic acid, sprayed 8:30, Time (16:00)
  Ratio (%) of Open Stomata: 69.3 ± 3.5%
[2]
  Ratio (%) of Open Stomata: 62.7 ± 2.5%
[5]
  Ratio (%) of Open Stomata: 61.9 ± 4.6%
[3]
  Ratio (%) of Open Stomata: 60.1 ± 7.5%
[6]
  Ratio (%) of Open Stomata: 62.5 ± 6.8%
[4]
  ratio of open stomata as compared to without the addition (student's t-test): statistically significant improvement in the ratio of open stomata

## C=C1C[C@@]23CC[C@H]4[C@@](C)(CCC[C@@]4(C)C(=O)O[C@@H]4O[C@H](CO)[C@@H](O)[C@H](O)[C@H]4O)[C@@H]2CC[C@]1(O[C@@H]1O[C@H](CO)[C@@H](O)[C@H](O)[C@H]1O[C@@H]1O[C@H](CO)[C@@H](O)[C@H](O)[C@H]1O)C3 [stevioside]
[2]
  Ratio (%) of Open Stomata: 65.1 ± 6.4%
[5]
  Ratio (%) of Open Stomata: 58.0 ± 4.2%
[3]
  Ratio (%) of Open Stomata: 45.7 ± 2.7%
[6]
  Ratio (%) of Open Stomata: 54.6 ± 3.8%
Addition concentrations and investigation times other than 500 μM at 11:30 a.m.
  ratio of open stomata as compared to without the addition (student's t-test): statistically significant improvement in the ratio of open stomata
Every addition concentration (300, 500 μM) and every investigation time
  ratio of open stomata as compared to without the addition: an improvement in the ratio of open stomata
